Experimental findings from BindingDB's records for doi:10.1016/j.ejmech.2018.09.061 (Anhui University of Chinese Medicine, 2018) are described below.

SMILES strings stand for the structures.

A short description of this data set: Inhibition of MDR1 in human KB/VCR cells assessed as potentiation of vincristine-induced cytotoxicity by measuring vincristine IC50 at 25 uM after 72 hrs by Western blot analysis (Rvb = 4.21 +/- 0.33 uM). In general terms: In western blotting, separated proteins are transferred to a membrane and probed.

In the case of `CC(C)C(=O)OC(C)(C)[C@@H]1Cc2c(ccc3ccc(=O)oc23)O1`, the half-inhibitory concentration (IC50) – broadly, the concentration that inhibits the measured activity by half – amounted to 560 nM.
